The source made the active and inactive calls.
Experiments:
[1] = inhibition of ARNT PAS-B/TACC3 complex formation – biochemical, AlphaScreen, cherry-picked samples, confirmation (AID 651703); assay type: functional, Homo sapiens;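 further: His-tagged ARNT PAS-B domain paired with GST-TACC3 E629A dimer coactivator fragment; potency of inhibitors that break up the complex and lower AlphaScreen signal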
[2] = anti-trypanosomal activity in BESM host cells – imaging, CA-I/72 strain, bovine embryo skeletal muscle, dry powder, dose response (AID 651885); assay type: functional, cell-based
[3] = blockers of HIV-1 envelope-mediated cell-cell fusion – cherry-pick, dose response (AID 652057); assay type: functional, cell-based
[4] = viability loss in CEM21 cells – cell-based, CellTiter-Glo luminescence, cherry-picked, cytotoxicity control for viral fusion inhibitor project, dose response (AID 652042); assay type: functional;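 further: potency for signal decrease meaning cytotoxicity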
[5] = HIV-1 AD8 envelope cell-cell fusion blockers – cherry-pick, dose response (AID 652062); assay type: functional, cell-based;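 further: luciferase signal from cell-cell fusion driven by HIV-1 clade B AD8 Env; potency is for inhibitors of fusion seen as a drop in luminescence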
cells = assay type: functional, cell-based
[6] = biological target: Nuclear receptor subfamily 0 group B member 1 (Homo sapiens, UniProt P51843); assay type: functional, cell-based;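 further: HEK293T cells transfected with SF-1 and DAX-1 plus StAR promoter luciferase reporter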
Nuclear receptor subfamily 0 group B member 1, sequence (P51843 whole entry): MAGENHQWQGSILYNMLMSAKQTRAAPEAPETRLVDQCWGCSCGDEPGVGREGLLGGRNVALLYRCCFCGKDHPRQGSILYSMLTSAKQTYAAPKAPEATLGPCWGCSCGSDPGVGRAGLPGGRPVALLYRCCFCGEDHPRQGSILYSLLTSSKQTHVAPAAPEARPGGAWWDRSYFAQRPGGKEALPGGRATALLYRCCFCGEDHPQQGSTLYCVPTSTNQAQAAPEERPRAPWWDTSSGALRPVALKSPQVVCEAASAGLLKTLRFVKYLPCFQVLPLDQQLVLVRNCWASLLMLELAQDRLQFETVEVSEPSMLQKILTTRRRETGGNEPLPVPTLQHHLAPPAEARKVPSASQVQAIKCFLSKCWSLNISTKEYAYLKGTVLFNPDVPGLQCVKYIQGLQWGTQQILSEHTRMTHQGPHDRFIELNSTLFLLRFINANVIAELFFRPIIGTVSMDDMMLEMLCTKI

[7] = viability loss in HEK293 kidney cells – cell-based, cherry-picks, set 5, cytotoxicity control, dose response (AID 1053117); assay type: functional
HEK293 [8] = test: inhibition of NOD1-driven NF-kB reporter – cell-based, luminescence, uHTS, primary screen (AID 1578); assay type: functional; details: Homo sapiens
HEK293 [9] = test: cells; assay type: functional, cell-based; details: Homo sapiens
HEK293 [10] = test: cells; assay type: functional, cell-based; details: Homo sapiens; remark: listed apart in the source
HEK293 [11] = test: NOD2 signaling inhibitors in MDP-stimulated cells, cell-based, uHTS, luminescence (AID 2001); assay type: functional; details: Homo sapiens
[12] = biological target: T1, Beta-2 adrenergic receptor (Homo sapiens, UniProt P07550); test: ADRB2 activation measured by internalization – cell-based, FAP fluorogen, flow cytometry, cherry pick 1, dose response (AID 588763); assay type: functional
T1 sequence (P07550 whole entry): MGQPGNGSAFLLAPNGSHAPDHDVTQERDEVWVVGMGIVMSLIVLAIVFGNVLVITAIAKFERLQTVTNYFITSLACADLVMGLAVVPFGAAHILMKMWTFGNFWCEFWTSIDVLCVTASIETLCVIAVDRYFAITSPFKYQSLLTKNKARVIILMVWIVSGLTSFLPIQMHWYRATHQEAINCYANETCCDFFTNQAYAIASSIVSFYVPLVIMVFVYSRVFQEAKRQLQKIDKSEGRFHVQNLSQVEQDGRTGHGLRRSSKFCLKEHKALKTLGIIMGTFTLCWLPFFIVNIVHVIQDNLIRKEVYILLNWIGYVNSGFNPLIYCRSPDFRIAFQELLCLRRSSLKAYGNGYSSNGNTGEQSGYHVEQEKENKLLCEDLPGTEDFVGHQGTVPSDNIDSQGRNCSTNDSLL

[13] = biological target: T1, Beta-2 adrenergic receptor; test: Dose response for HTS for Beta-2AR agonists via FAP method from Powderset3.; assay type: functional
[14] = NIH-3T3 fibroblast cytotoxicity, dose response, cytotoxicity control, cell-based, fluorescence, Alamar Blue, secondary assay (AID 2327); assay type: functional;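 further: NIH-3T3 mouse fibroblasts cultured with fluconazole at 8 µg/mL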
[15] = fluconazole-exposed Candida albicans growth modulators – fluorescence, retest, confirmation (AID 2467); assay type: functional, cell-based
Vero [16] = test: cells; assay type: functional, cell-based; details: Chlorocebus sabaeus
Vero [17] = test: cells; assay type: functional; details: Chlorocebus sabaeus
[18] = biological target: SWI/SNF-related matrix-associated actin-dependent regulator of chromatin subfamily A member 2 (Homo sapiens, UniProt P51531); test: Luminescence-based cell-based high throughput dose response assay to identify activators of the function of SWI/SNF related, matrix associated, actin dependent regulator of chromatin, subfamily a, member 2 (SMARCA2, BRM).; assay type: functional
SWI/SNF-related matrix-associated actin-dependent regulator of chromatin subfamily A member 2, sequence (P51531 whole entry): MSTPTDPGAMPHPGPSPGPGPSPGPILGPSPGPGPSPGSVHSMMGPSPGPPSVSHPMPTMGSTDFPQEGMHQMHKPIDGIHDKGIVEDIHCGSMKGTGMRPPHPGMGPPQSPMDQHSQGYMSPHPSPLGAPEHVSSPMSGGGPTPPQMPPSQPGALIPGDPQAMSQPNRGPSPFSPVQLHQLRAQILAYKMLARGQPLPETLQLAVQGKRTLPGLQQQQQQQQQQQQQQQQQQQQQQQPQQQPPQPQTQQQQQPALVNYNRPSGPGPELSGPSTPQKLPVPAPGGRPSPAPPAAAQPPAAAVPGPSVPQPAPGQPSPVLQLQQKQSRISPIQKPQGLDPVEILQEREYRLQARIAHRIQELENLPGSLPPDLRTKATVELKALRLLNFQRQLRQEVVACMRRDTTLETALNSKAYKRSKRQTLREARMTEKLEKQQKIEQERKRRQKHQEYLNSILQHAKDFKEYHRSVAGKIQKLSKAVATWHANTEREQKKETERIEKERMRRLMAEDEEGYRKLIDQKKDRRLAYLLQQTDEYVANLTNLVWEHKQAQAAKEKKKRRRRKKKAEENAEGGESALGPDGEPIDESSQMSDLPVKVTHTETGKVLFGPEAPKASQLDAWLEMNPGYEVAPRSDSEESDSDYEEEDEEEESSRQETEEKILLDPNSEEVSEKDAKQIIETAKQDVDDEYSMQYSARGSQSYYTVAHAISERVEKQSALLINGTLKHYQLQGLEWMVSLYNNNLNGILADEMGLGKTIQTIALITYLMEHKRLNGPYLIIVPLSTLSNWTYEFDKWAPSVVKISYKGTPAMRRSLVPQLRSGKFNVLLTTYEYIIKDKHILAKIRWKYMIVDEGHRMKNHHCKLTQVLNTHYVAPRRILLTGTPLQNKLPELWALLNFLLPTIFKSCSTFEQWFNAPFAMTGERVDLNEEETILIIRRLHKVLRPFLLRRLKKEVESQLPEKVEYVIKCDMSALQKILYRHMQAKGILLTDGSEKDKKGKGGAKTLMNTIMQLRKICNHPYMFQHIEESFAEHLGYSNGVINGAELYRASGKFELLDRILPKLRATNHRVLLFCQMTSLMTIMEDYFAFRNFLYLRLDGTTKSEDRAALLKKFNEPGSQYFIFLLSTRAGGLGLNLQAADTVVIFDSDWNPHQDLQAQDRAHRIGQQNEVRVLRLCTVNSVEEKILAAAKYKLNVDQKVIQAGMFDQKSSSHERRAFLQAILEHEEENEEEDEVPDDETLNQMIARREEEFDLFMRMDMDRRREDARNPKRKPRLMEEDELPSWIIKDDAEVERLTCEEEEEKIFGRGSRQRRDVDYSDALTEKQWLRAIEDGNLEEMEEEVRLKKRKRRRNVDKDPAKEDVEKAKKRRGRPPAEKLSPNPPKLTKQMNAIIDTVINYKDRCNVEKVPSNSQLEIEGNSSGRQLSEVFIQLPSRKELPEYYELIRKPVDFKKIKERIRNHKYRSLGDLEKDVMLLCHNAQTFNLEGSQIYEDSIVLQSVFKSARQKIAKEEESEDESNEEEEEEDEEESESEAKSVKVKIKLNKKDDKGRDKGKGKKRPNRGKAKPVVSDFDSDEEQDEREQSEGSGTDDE

[19] = Counterscreen for activators of the function of SWI/SNF related, matrix associated, actin dependent regulator of chromatin, subfamily a, member 2 (SMARCA2, BRM): Luminescence-based cell-based high throughput dose response assay to identify non-selective compounds using the VP16 reporter assay.; assay type: functional
Cryptococcus neoformans = test: PubChem AID 686997; assay type: functional, organism-based
[20] = A549 cell cytotoxicity, dose response, cytotoxicity control, plate reader, cherry-pick, antagonist series (AID 743412); assay type: functional, cell-based
[21] = inhibition of bursicon-driven LGR2 cAMP signaling – cell-based, HEK293, CRE-luciferase reporter, cherry pick, dose response (AID 743342); assay type: functional
[22] = blockade of melanocortin 4 receptor signaling – cell-based, plate reader, cherry pick, counter-screen for LGR2 antagonist project, dose response (AID 743444); assay type: functional;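 further: transfected HEK 293 cells stimulated with alpha-MSH peptide; potency of inhibitors of the alpha-MSH evoked signal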
[23] = biological target: T2, Sentrin-specific protease 1 (Homo sapiens, UniProt Q9P0U3); test: SENP1 catalytic domain blockers, concentration series – biochemical, kinetic FRET, dose response (AID 651697); assay type: functional; details: read-out: IC50_Mean
T2 sequence (Q9P0U3 whole entry, the tested form may be a part): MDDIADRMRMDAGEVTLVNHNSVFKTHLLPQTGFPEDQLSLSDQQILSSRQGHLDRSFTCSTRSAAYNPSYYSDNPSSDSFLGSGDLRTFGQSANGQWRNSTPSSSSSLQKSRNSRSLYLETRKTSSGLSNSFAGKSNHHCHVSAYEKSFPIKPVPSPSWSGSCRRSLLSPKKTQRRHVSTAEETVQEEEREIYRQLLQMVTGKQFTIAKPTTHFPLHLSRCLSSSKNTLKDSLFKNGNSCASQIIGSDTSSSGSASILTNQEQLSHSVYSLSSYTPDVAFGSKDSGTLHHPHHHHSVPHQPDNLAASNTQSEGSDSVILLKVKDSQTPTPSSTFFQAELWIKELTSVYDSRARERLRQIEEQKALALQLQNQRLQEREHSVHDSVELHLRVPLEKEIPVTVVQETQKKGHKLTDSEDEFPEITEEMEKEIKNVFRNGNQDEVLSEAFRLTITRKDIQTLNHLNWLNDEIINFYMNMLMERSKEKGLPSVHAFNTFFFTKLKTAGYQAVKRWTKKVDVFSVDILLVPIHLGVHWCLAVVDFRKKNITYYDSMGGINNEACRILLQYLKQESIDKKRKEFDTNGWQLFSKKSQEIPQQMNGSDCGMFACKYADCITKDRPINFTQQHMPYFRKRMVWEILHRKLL

[24] = biological target: T2, Sentrin-specific protease 1; test: Dose response confirmation of small molecule inhibitors of the catalytic domain of the SUMO protease, SENP1 in a FRET assay.; assay type: functional; details: read-out: IC50_Mean
[25] = biological target: T3, Oxysterols receptor LXR-beta (Homo sapiens, UniProt P55055); assay type: functional, cell-based;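 further: agonist activity at LXR measured by a cell-based luminescence readout across a dose range, run as a counterscreen for daf-12 agonists; HEK293 cells with Gal4-LXR fusion and GAL4-driven luciferase reporter; potency for activation of Gal4-LXR reporter so compounds are agonists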
T3 sequence (P55055 whole entry): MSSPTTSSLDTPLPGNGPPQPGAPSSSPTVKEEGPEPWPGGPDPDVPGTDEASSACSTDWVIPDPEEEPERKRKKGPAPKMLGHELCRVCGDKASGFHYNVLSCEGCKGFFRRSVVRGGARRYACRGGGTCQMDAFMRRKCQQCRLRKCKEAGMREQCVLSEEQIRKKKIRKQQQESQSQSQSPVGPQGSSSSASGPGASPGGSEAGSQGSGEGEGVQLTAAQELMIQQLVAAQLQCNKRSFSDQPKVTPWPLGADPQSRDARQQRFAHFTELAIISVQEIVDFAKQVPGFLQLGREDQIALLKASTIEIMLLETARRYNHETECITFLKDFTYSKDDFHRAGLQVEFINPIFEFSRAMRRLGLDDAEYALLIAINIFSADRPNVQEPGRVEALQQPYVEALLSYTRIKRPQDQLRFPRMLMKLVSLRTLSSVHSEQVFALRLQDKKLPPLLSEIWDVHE

Which AC50 [1] does the source give for O=c1oc2ccccc2c(O)c1/C=N/Cc1ccccn1 here?
The AC50 was 109 µM (active).

With C[C@H]1CN([C@@H](C)CO)C(=O)c2cccc(NC(=O)c3ccncc3)c2O[C@@H]1CN(C)Cc1ccc(C(=O)O)cc1 as the compound, how does the IC50 [2] read?
Its IC50 is > 20 µM (inactive).

With C[C@H](CO)N1C[C@H](C)[C@H](CN(C)S(=O)(=O)c2ccccc2)Oc2cc(Br)ccc2S1(=O)=O as the compound, how does the AC50 [3] read?
Its AC50 is 4.68 µM (active).

What about the AC50 [4] of the same compound?
Its AC50 is 53.4 µM (active).

What about the AC50 [5] of the same compound?
Its AC50 is 38.6 µM (active).

For O=[N+]([O-])c1ccc(COc2ccc(CN3CCOCC3)cc2)cc1, which IC50 (cells) is on record?
Its IC50 is > 67.5 µM (inactive).

And the IC50 [6]?
The IC50 was > 67.5 µM (inactive).

For COc1cccc(-c2ccc3c(c2)[C@H]2[C@H](CCN2S(=O)(=O)c2cccc(OC)c2)[C@H](CO)N3)c1, which AC50 [7] is on record?
Its AC50 is 26.9 µM (active).

For Cn1c(N2CCN(c3ccccn3)CC2)nc2c1c(=O)n(Cc1ccc(Cl)cc1)c(=O)n2C, which EC50 (HEK293 [8]) is on record?
The EC50 was 6.92 µM (active).

What about the IC50 (HEK293 [9]) of the same compound?
Its IC50 is 7.19 µM (active).

And the IC50 (HEK293 [10])?
The IC50 was 10.9 µM (active).

What about the IC50 (HEK293 [11]) of the same compound?
Its IC50 is 6 µM (active).

And the EC50 [12]?
Its EC50 is 0.081 µM (active).

What about the EC50 [13] of the same compound?
The EC50 was 0.0074 µM (active).

Which EC50 [14] does the source give for O=C(Nc1ccccc1Cl)c1ccc([N+](=O)[O-])o1 here?
Its EC50 is > 160 µM (inactive).

And the EC50 [15]?
Its EC50 is 1.64 µM (active).

And the IC50 (Vero [16])?
The IC50 was > 25 µM (active).

What about the CC50 (Vero [17]) of the same compound?
Its CC50 is 12.2 µM (active).

And the EC50 [18]?
Its EC50 is > 91.2 µM (inactive).

What about the EC50 [19] of the same compound?
Its EC50 is > 91.2 µM (inactive).

With COC(=O)C1=C(C)N(Cc2ccc(Br)cc2)C(=S)NC1c1cccc(Cl)c1 (configuration not stated) as the compound, how does the AC50 (Cryptococcus neoformans) read?
The AC50 was 26.4 µM (active).

Which results are given for C[C@H](CO)N1C[C@H](C)[C@H](CN(C)C(=O)Nc2cccc3ccccc23)OCCCC[C@H](C)Oc2ccc(NC(=O)c3ccccc3)cc2C1=O?
AC50 [20]: 48 µM (active); AC50 [21]: 4.88 µM (active); AC50 [22]: 52.5 µM (active)

For CC/N=c1\scc(-c2cccs2)n1/N=C/c1cc(OC)ccc1O, which IC50 [23] is on record?
Its IC50 is 18.6 µM (active).

What about the IC50 [24] of the same compound?
The IC50 was 15.8 µM (active).

Which EC50 [25] does the source give for Cc1ccc(/C=N/NC(=O)c2ccccn2)s1 here?
The EC50 was > 67.6 µM (inactive).

Reference: ChEMBL document CHEMBL1201862, “PubChem BioAssay data set” (2004)
